Our source for the RP-LC retention time values is the METLIN SMRT retention time set (Domingo-Almenara et al. 2019).

The data set in a line: gradient 5% acetonitrile 3 min, to 50% in 2 min, to 85% in 15 min, held 3 min, 100 µL/min. Conditions: column: Zorbax Extend-C18 2.1 x 50 mm; eluents: water / acetonitrile, 0.1% formic acid. In a few lines: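 Retention times come from adduct peaks that were picked computationally and then checked by hand. The standards, pure and pooled in mixtures of ~100 molecules, were run on a Zorbax Extend-C18 column (2.1 × 50 mm, 1.8 μm) at 100 μL/min with water and acetonitrile, each with 0.1% formic acid. Detection was by quadrupole time-of-flight mass spectrometry in positive and negative ionization mode, with a dead volume of 40 μL and a dwell volume of 900 μL.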
Consider `COc1ccc(Br)cc1S(=O)(=O)Nc1cc(-c2cn3ccccc3n2)ccc1C`, for which the RP-LC retention time was 701 s. The same measure for `CCC1CCCCN1C(=O)c1cnc2nc(C)ccc2c1Nc1ccc(OC)cc1OC` (stereo unspecified): 667 s; for `CCOc1cc(=O)n2c(c1C(=O)NCCCN1CCCCC1)CCCCC2`: 568 s; for `CCCN1CCC[C@@H](c2cccc(O)c2)C1`: 596 s.

`O=S(=O)(c1cccnc1)N1CC(c2nc(CCOCc3ccccc3)no2)C1`: the RP-LC retention time stood at 835 s.

`COC(=O)c1c(NCC2CCCO2)c2cccc(Cl)c2[nH]c1=O` (stereo unspecified) displayed an RP-LC retention time of 703 s. Then `Cc1cc(C(=O)Nc2ccc3scnc3c2)no1`, with 645 s; and `CCCSc1nc2c(c(=O)n(C)c(=O)n2C)n1C`, with 837 s; and `OC(CN1CCNCC1)Cn1c2ccc(Br)cc2c2cc(Br)ccc21` (stereo unspecified), with 732 s. The same measure for `CNC(=O)c1c(NC(=O)COc2ccccc2)sc2c1CCC2`: 1020 s; for `COc1ccc(OC)c(NC(=O)CSc2cc(N3CCN(c4ccccc4OC)CC3)ncn2)c1`: 791 s. Then `COc1ccc(-c2nnc(Cc3nc(-c4ccc5c(c4)OCO5)no3)o2)cc1OC`, with 940 s. `COc1ccc(-n2nc(SCC(=O)Nc3ccc(Cl)cc3)ccc2=O)cc1` returned an RP-LC retention time of 629 s. The same measure for `CC(=O)c1ccc(S(=O)(=O)N2CCC(CN3CCCC(C)C3)CC2)cc1` (stereo unspecified): 634 s; for `Cc1ccc(-c2cnn3c(N4CCN(c5cccc(C)n5)CC4)cc(C)nc23)cc1`: 776 s; for `CCc1ccc(NS(=O)(=O)c2cc(-c3[nH]ncc3C(=O)N(C)C)oc2C)cc1`: 704 s. Then `O=S(=O)(NC1CCCCCC1)c1ccc(-c2cc(C(F)(F)F)on2)o1`, with 1170 s. The same measure for `O=C(Cn1nc2c3cc(-c4ccc(F)cc4)nn3ccn2c1=O)Nc1ccc(Br)cc1F`: 989 s; for `COc1ccc2c(c1)c1ncn(Cc3nc(C4CC4)no3)c(=O)c1n2Cc1c(F)cccc1Cl`: 1070 s; for `COCc1nc(-c2ccc(OC3CCN(C(=O)c4n[nH]c5ccccc45)C3)cc2)no1` (stereo unspecified): 835 s.

With `O=S(=O)(c1ccc2nncn2c1)N(Cc1ccccc1F)c1cc(F)cc(F)c1`, the RP-LC retention time came to 874 s. The same measure for `O=C(CN1CC=C(c2cnn(-c3ccccc3)c2)CC1)NC1CCCCCC1`: 702 s; for `COc1ccc(Cl)cc1NS(=O)(=O)c1cc(-c2[nH]ncc2C(=O)N(C)C)oc1C`: 716 s. Then `CCOc1cc(=O)n2c(c1C(=O)Nc1cccc(SC)c1)CCCC2`, with 767 s; and `CCCCN1N=C(C(=O)N2CCOCC2)S(=O)(=O)c2ccc(Cl)cc21`, with 889 s; and `O=C(C1CCN(S(=O)(=O)c2cc(-c3noc(C4CC4)n3)cs2)CC1)N1CCCCC1`, with 931 s. The same measure for `CCCCC1CCC(C(=O)Nc2nc(-c3ccc4c(c3)N(C)C(=O)CO4)c(C)s2)CC1` (stereo unspecified): 1410 s; for `COc1ccc2c(c1)C1(CCN(S(=O)(=O)c3ccc4c(c3)oc(=O)n4C)C1)C(=O)N2` (stereo unspecified): 746 s; for `COc1ccccc1N1CCN(c2cc(SCC(=O)Nc3ccc4c(c3)OCO4)ncn2)CC1`: 900 s. On to `COCC1(O)CCOC2(CCN(Cc3ccccc3C)CC2)C1` (stereo unspecified), for which the RP-LC retention time was found to be 591 s.

`CCNC(=O)c1nc(C(=O)NC2CC2)cs1` gave an RP-LC retention time of 631 s. `Cc1cc(S(=O)(=O)N2CCN(C3CCN(C)C3=O)CC2)ccc1Cl` (stereo unspecified) had an RP-LC retention time of 595 s. The same measure for `COc1ccc(-c2[nH]ncc2CN2CCC3(CC2)CC(C)(O)CCO3)cc1` (stereo unspecified): 588 s; for `Cn1cc(-c2nc(C(=O)NCc3ccc(F)cc3Cl)cs2)c2cccnc21`: 1010 s. Then `Cn1nc(-c2nnc(-c3ccccc3Cl)o2)c2c1CCN(C(=O)COc1ccc(F)cc1)C2`, with 891 s. Compound `CC(C)NC(=O)c1ccc2c(c1)nc(CN(C)C(=O)NCc1ccco1)n2C` yielded an RP-LC retention time of 602 s. The same measure for `O=C(c1ccccn1)N1CCCn2nc(-c3ccc(Cl)cc3)cc2C1`: 817 s; for `COCCOC1CCOC2(CCN(C(=O)c3cccs3)CC2)C1` (stereo unspecified): 691 s.

Consider `CCOC(=O)C1C(=O)C=C(c2ccco2)CC1c1ccccc1Cl` (stereo unspecified), for which the RP-LC retention time was determined as 1090 s. `Cc1ccc(CNC(=O)CCc2c(C)nn(-c3cc(N4CCCCC4)ncn3)c2C)o1` returned an RP-LC retention time of 882 s. The same measure for `COc1ccc(-c2cc(C(=O)N3CCC(NC(=O)C4CC4)CC3)[nH]n2)cc1`: 652 s; for `CC(C)c1cccc(NC(=O)Cn2nc3c(N4CCSCC4)nccn3c2=O)c1`: 930 s; for `Cc1noc(C)c1CC(=O)N1CCc2nn(CC3CC3)c(=O)n2CC1`: 626 s. As to `Cc1ccc(C)c2c(=O)c3c([nH]c12)CCN(CC(=O)Nc1ccc(F)cc1)C3`, the RP-LC retention time turned out to be 634 s. Then `CSc1ccc(CCNC(=O)c2nnc(-c3ccc(S(=O)(=O)N4CCCC4)cc3)o2)cc1`, with 982 s.

Consider `CC(C)NC(=O)C1CCc2sc(C(=O)N3CCOCC3)cc2C1` (stereo unspecified), for which the RP-LC retention time stood at 596 s. The same measure for `Cc1sc(-c2noc(C3CC3)n2)cc1S(=O)(=O)N1CCC(C(=O)NC2CCCCC2)CC1`: 1020 s; for `CC1CCCN(C(=O)CN2CCN(C)CC2)C1` (stereo unspecified): 536 s.

The compound `Cc1ccsc1CCNC(=O)C1CCN(C(=O)c2cc(-c3cccnc3)n[nH]2)CC1` displayed an RP-LC retention time of 625 s. The same measure for `Cc1cc(C(=O)N2CCC(CC(=O)NC3CC3)C2)n(C)n1` (stereo unspecified): 585 s; for `CN(C)CCNC(=O)Cn1cnc2onc(-c3ccc(F)cc3)c2c1=O`: 620 s. Consider `Cn1c(SCC(=O)N2CCCC2)nnc1-c1ccc2c(c1)OCCCO2`, for which the RP-LC retention time is 661 s. The same measure for `CC1=C(c2ccc(F)cc2)S(=O)(=O)N=C1N1CCCN(C(=O)NCCC(C)C)CC1`: 837 s. With `CCCCN(C(=O)c1ccc(C)cc1)C1(C(=O)NCc2ccccc2)CCN(C(C)=O)CC1`, the RP-LC retention time was 901 s. Then `CCc1cccc(NS(=O)(=O)c2cn(CC(C)C)c3ncccc23)c1`, with 1070 s; and `CC(=O)Nc1ccc(S(=O)(=O)N=S(C)C)cc1`, with 608 s; and `C=CCN1CCN(C(=O)c2cn(-c3ccc(-c4nc(C(C)(C)C)no4)cn3)cn2)CC1`, with 680 s.

As to `O=C(Cc1ccccc1Cl)N1CCCC1c1nc(-c2ccccc2)no1` (stereo unspecified), the RP-LC retention time amounted to 1020 s.

Consider `COc1ccccc1-c1nc2cnccn2c1NCCC(=O)NC1CCCCCC1`, for which the RP-LC retention time came out at 715 s.

Take `COc1ccc(CNC(=O)C2c3ccccc3C(=O)N3CCc4ccccc4C23)c(OC)c1` (stereo unspecified): the RP-LC retention time worked out at 796 s. As to `CC1CN(c2ccc(F)cc2)c2nc3c(c(=O)n(CC(=O)O)c(=O)n3C)n2C1` (stereo unspecified), the RP-LC retention time came out at 729 s. `COCCN1CC2(CCN(S(=O)(=O)c3cccc(Cl)c3)CC2)C1c1ccccc1` (stereo unspecified) had an RP-LC retention time of 730 s. `COCCc1nncn1C1CN(Cc2cccc(OC(F)(F)F)c2)C1` had an RP-LC retention time of 606 s.

In the case of `COCCOC1CCN(S(=O)(=O)c2cccc(OC)c2)CC1`, the RP-LC retention time was determined as 811 s. The same measure for `CC(C)CCOc1cccc(OCC(=O)NCC(=O)O)c1`: 772 s; for `CCOC(=O)c1c(C)[nH]c(CCC(=O)NC2CCCCC2)c1C`: 823 s. The same measure for `O=C1NCCCCCN(C(=O)Nc2ccccc2F)[C@H]2CCC[C@@H]12`: 734 s. The same measure for `CCCCN1CCN(C(=O)c2nnc(-c3ccc(S(=O)(=O)N(C)C)cc3)o2)CC1`: 620 s; for `CC(CN1CC(=O)NC(=O)C1)N1CC(=O)NC(=O)C1` (stereo unspecified): 530 s.

Consider `CC(C)Cn1c(CCNC(=O)c2ccccc2F)nc2cccnc21`, for which the RP-LC retention time came to 698 s. The same measure for `COCCn1c(Cc2cccn2C)nnc1SCC(=O)N1CCCc2ccccc21`: 809 s; for `CCOC(=O)CNC(=O)N1CCC(n2c(-c3ccc(F)cc3)nc3cccnc32)C1` (stereo unspecified): 641 s; for `CC(NC(=O)Cn1cc(C#N)c2ccccc21)c1ccc2c(c1)OCCCO2` (stereo unspecified): 881 s. As to `CN(Cc1ccccc1)C(=O)C1CCCN(c2ncnc3c2nc2n3CCCCC2)C1` (stereo unspecified), the RP-LC retention time amounted to 758 s. The same measure for `O=C(c1cccnc1)N1CC(n2cc(COCC3CC3)nn2)C1`: 597 s; for `O=S(=O)(Nc1cccc(-c2cn3ccccc3n2)c1)c1ccc(Br)cc1`: 673 s; for `O=C(NCC1CCN(C(=O)Nc2ccc(F)cc2)CC1)c1ccccn1`: 674 s.

`Cc1ccc(CC(=O)N2CCC3(C2)C(=O)N(C)c2ccccc23)cc1` (stereo unspecified) came in with an RP-LC retention time of 850 s. For `CC(C(=O)N1CCN(c2ncccn2)CC1)n1c2ccccc2c2cnn(C)c(=O)c21` (stereo unspecified), the RP-LC retention time turned out to be 794 s. The same measure for `CCN(CC)c1nc2cc(C(=O)OC)ccc2c(=O)n1-c1cc(OC)cc(OC)c1`: 1090 s; for `O=C(c1cccs1)N1CCC(n2c(C3CCCC3)nc3cccnc32)C1` (stereo unspecified): 653 s.
